Measured values taken from patent EP4117701B1, “COMPOSITIONS FOR THE PREVENTION AND/OR TREATMENT OF BENIGN PROSTATIC HYPERTROPHY (BPH)” (IDI Integratori Dietetici Italiani S.r.l., priority 2020, dated 2021).

How the values were obtained:
in vitro = type: cell-based; settings: human, lncap cells
Experimental: The cytotoxic activity of the considered plant extracts was evaluated in a human tumour prostate cell line (LNCaP). […] The treatment was prolonged for 6 hours, period of time corresponding to the overall duration of the pre-treatment and of post-treatment thereto the cells were subjected for the subsequent evaluation of the anti-inflammatory activity. At the end of the incubation period, the vitality of the prostate cells was evaluated by using the assay MTS, based upon the reduction of the compound MTS tetrazolium by the vital cells to generate a form of coloured formazan, which can be quantified by measuring the absorbance at 490-500 nm thereof.

[1] = test system: human prostate cell line (LNCaP); experiment: Cytotoxicity of plant extracts, MTS assay, 24 hours; type: cell-based; settings: extracts 0 to 1000 µg/mL (TEUPOL10 0 to 1500 µg/mL), Dutasteride 0 to 7.93 µg/mL
Experimental: The cytotoxic activity of considered plant extracts was evaluated in a human prostate cell line (LNCaP). The prostate cells were treated with growing concentrations of the plant extracts (from 0 to 1000 µg/mL for the extract of B. Serrata and S. Repens, from 0 to 1500 µg/mL for TEUPOL10) and of the positive control Dutasteride (from 0 µg/mL to 7.93 µg/mL). The treatment was prolonged for 24 hours, time corresponding to the overall duration of the experiments related to PSA and to 5-α-reductase. At the end of the incubation period, the vitality of the prostate cells was evaluated by using the assay MTS, based upon the reduction of the compound MTS tetrazolium by the vital cells to generate a coloured form, which can be quantified by measuring the absorbance thereof at 490-500 nm.

Row | MCC at 6 h (in vitro) | SMILES | adverse effect on vitality of the prostate cells [1]
1 | 80 µg/mL | O=C(O)Cc1ccccc1Nc1c(Cl)cccc1Cl [Diclofenac] | –
2 | – | C[C@]12C=CC(=O)N[C@@H]1CC[C@@H]1[C@@H]2CC[C@]2(C)[C@@H](C(=O)Nc3cc(C(F)(F)F)ccc3C(F)(F)F)CC[C@@H]12 [Dutasteride] | No adverse effect
